Laboratory results taken from patent publication US20240199676A1, “ANTIVIRAL COMPOUNDS AND METHODS OF MAKING AND USING THE SAME” (Gilead Sciences, Inc., priority 2022, published 2024).

Experiments:
[1] = GI S9 stability (Ex. Z), rat intestinal S9; type: in vitro ADME; conditions: rat intestinal S9, 1.0 mg/mL protein, 2 μM substrate, pH 7.4, read-out: GIS9 Rat T½ (per Ex. Z)
Method: (§1) Example Z: GI S9 stability data:
(§2) Stock solutions of test compounds in dimethyl sulfoxide (DMSO) having a final concentration of 10 mM were prepared and used in all experiments. Sekisui XenoTech (Kansas City, KS) provided pooled intestinal S9 fractions. All other chemicals were purchased from Sigma-Aldrich (St. Louis, MO) or VWR (West Chester, PA). Internal Standard/Quench (IS/Q) used to stop reactions was 100 nM labetalol in (by volume) methanol (10%) and acetonitrile (90%).
(§3) Stability in Intestinal S9 Fractions: Duplicate aliquots of test compound or positive control substrate were added to S9 stock diluted with phosphate buffered saline (137 mM NaCl, 2.7 mM KCl, 10 mM phosphate buffer), pH 7.4, to obtain a protein concentration of 1.0 mg/mL. The metabolic reactions were initiated by the addition of the substrates to the S9 reaction mixture to a final concentration of 2 μM. At 0, 10, 20, 30, 60 and 120 min, 25 μL aliquots of the reaction mixture were transferred to plates containing 225 μl of IS/Q solution. After quenching, the plates were centrifuged at 3000×g for 30 minutes. 150 μL aliquots of each supernatant were dried down then reconstituted with 300 μL water. Aliquots (10 μL) of the prepared samples were analyzed on a Thermo Q-Exactive mass spectrometer as described below.
(§4) Liquid Chromatography—Mass Spectrometry: Quantification of test compounds and control substrate was performed by analyte/internal standard peak area ratio (PAR) values measured on a Thermo Q-Exactive mass spectrometer coupled to a Dionex UltiMate 3000 HPLC with a Leap Technologies HTC PAL autosampler. The column used for analysis was a Waters Acquity BEH C18 (1.7 μm particle size, 2.1×50 mm). Mobile phase A consisted of 0.1% (v/v) formic acid in water. Mobile phase B consisted of 0.1% (v/v) formic acid in acetonitrile. Elution of analytes was achieved by a series of linear gradients varying the proportions of A and B. The mass spectrometer was calibrated on a weekly basis and mass tolerance of 5 ppm was used.
(§5) Metabolic stabilities in S9 fractions were determined by measuring the rates of disappearance of test compound and positive control substrate.
(§6) Data (% of substrate remaining) were plotted on a semi-log scale and fitted using an exponential decline model:
(§7) Where Ct—% of substrate remaining at time=t; C0—% of substrate remaining at time=0; t—time; T½—half-life The Half-life (T½) is determined by the following equation: […]
(§8) Assuming a first-order reaction, the slope (k) is extrapolated from the aforementioned plotted data.

[2] = GI S9 stability (Ex. Z), human intestinal S9; type: in vitro ADME; conditions: human intestinal S9, 1.0 mg/mL protein, 2 μM substrate, pH 7.4, read-out: GIS9 Human T½ (per Ex. Z)
Method: as §1, §2, §3, §4, §5, §6, §7, §8

[3] = tested on: Respiratory syncytial virus recombinant with luciferase (RSV-Luc5) in NHBE cells; experiment: NHBE RSV-Luc5 384-well Assay (RSV FLUC NHBE 384 V2, Ex. W); type: cell-based; conditions: human respiratory syncytial virus, 72 h, read-out: EC50 RSV FLUC NHBE 384 V2 (per Ex. W)
Excerpt: Example W: NHBE RSV-Luc5 384-well Assay (EC50 RSVFLUC NHBE-384)
Normal Human Bronchial Epithelial (NHBE) cells were purchased from Lonza (Walkersville, MD Cat #CC2540) and maintained in BEGM Bronchial Epithelial Cell Growth Medium BulletKit (Lonza CC-3170).
Cells were thawed, expanded, and were used for experiments at passage 2. Respiratory syncytial virus recombinant with luciferase (RSV-Luc5) (≥1×10^7 Infectious Units/mL (IU/mL) determined by TCID50) was purchased from Microbiologics (Saint Cloud, MN). Viral replication was determined in NHBE cells in the following manner.
Compounds are prepared in 100% DMSO in 384-well polypropylene plates (Greiner, Monroe, NC, Cat #784201) with 8 compounds per plate in grouped replicates of 4 at 10 serially diluted concentrations (1:3). The serially diluted compounds were transferred to low dead volume Echo plates (Labcyte, Sunnyvale, CA, Cat #LP-0200).
The test compounds were spotted to 384-well assay plates (Greiner, Monroe, NC, Cat#781091) at 200 nL per well using an Echo acoustic dispenser (Labcyte, Sunnyvale, CA). NHBE cells were harvested and suspended in BEGM Bronchial Epithelial Cell Growth Medium BulletKit and seeded to the pre-spotted assay plates at 5,000 cells per well in 30 μL. RSV-Luc5 virus was diluted in BEGM Bronchial Epithelial Cell Growth Medium BulletKit at 500,000 Infectious Units (IU) per mL and 10 μL per well was added to the assay plates containing cells and compounds, for an MOI of 1. The assay plates were incubated for 3 days at 37° C. and 5% CO2. At the end of incubation, One-Glo reagent (Promega, Madison, WI, Cat #E6120) was prepared. The assay plates and One-Glo reagent were equilibrated to room temperature for at least 15 minutes. 40 μL per well of One-Glo reagent was added and the plates were incubated at room temperature for 15 minutes before reading the luminescence signal on an EnVision multimode plate reader (Perkin Elmer, Waltham, MA). Remdesivir was used as positive control and DMSO was used as negative control. Values were normalized to the positive and negative controls (as 0% and 100% replication, respectively) and data was fitted using non-linear regression analysis by Gilead's dose response tool. The EC50 value for each compound was defined as the concentration reducing the viral replication by 50%.

CC(C)C(=O)Nc1ncnn2c([C@@H]3O[C@](C#N)(CO)[C@@H](O)[C@H]3O)ccc12 [Compound 30, N-(7-((2S,3R,4S,5R)-5-cyano-3,4-dihydroxy-5-(hydroxymethyl)tetrahydrofuran-2-yl)pyrrolo[2,1-f][1,2,4]triazin-4-yl)isobutyramide]
half-life at 2 μM ([1]; pooled intestinal S9 fractions): 789 min | half-life at 2 μM ([2]; pooled intestinal S9 fractions): 789 min | EC50 [3]: 38.5 µM

CCCC(=O)OC[C@@]1(C#N)O[C@@H](c2ccc3c(N)ncnn23)[C@H](O)[C@@H]1O [Compound 6, ((2R,3S,4R,5S)-5-(4-aminopyrrolo[2,1-f][1,2,4]triazin-7-yl)-2-cyano-3,4-dihydroxytetrahydrofuran-2-yl)methyl butyrate]
half-life at 2 μM ([1]; pooled intestinal S9 fractions): 4 min | half-life at 2 μM ([2]; pooled intestinal S9 fractions): 8 min | EC50 [3]: 7.69 µM

N#C[C@]1(COC(=O)CC2CCC2)O[C@@H](c2ccc3c(N)ncnn23)[C@H](O)[C@@H]1O [Compound 16, ((2R,3S,4R,5S)-5-(4-aminopyrrolo[2,1-f][1,2,4]triazin-7-yl)-2-cyano-3,4-dihydroxytetrahydrofuran-2-yl)methyl 2-cyclobutylacetate]
half-life at 2 μM ([1]; pooled intestinal S9 fractions): 4 min | half-life at 2 μM ([2]; pooled intestinal S9 fractions): 14 min | EC50 [3]: 8.36 µM

CC(C)(C)C(=O)OC[C@@]1(C#N)O[C@@H](c2ccc3c(N)ncnn23)[C@H](O)[C@@H]1O [Compound 10, ((2R,3S,4R,5S)-5-(4-aminopyrrolo[2,1-f][1,2,4]triazin-7-yl)-2-cyano-3,4-dihydroxytetrahydrofuran-2-yl)methyl pivalate]
half-life at 2 μM ([1]; pooled intestinal S9 fractions): 53 min | half-life at 2 μM ([2]; pooled intestinal S9 fractions): 124 min | EC50 [3]: 7.87 µM

N#C[C@]1(COC(=O)Cc2ccccc2)O[C@@H](c2ccc3c(N)ncnn23)[C@H](O)[C@@H]1O [Compound 38, ((2R,3S,4R,5S)-5-(4-aminopyrrolo[2,1-f][1,2,4]triazin-7-yl)-2-cyano-3,4-dihydroxytetrahydrofuran-2-yl)methyl 2-phenylacetate]
half-life at 2 μM [1]: 12 min | half-life at 2 μM [2]: 28 min | EC50 [3]: 10.6 µM

CCC(=O)OC[C@@]1(C#N)O[C@@H](c2ccc3c(N)ncnn23)[C@H](O)[C@@H]1O [Compound 5, ((2R,3S,4R,5S)-5-(4-aminopyrrolo[2,1-f][1,2,4]triazin-7-yl)-2-cyano-3,4-dihydroxytetrahydrofuran-2-yl)methyl propionate]
half-life at 2 μM ([1]; pooled intestinal S9 fractions): 10 min | half-life at 2 μM ([2]; pooled intestinal S9 fractions): 29 min | EC50 [3]: 7.78 µM

CCC(CC)C(=O)Nc1ncnn2c([C@@H]3O[C@](C#N)(COC(=O)C(CC)CC)[C@@H](O)[C@H]3O)ccc12 [Compound 11, ((2R,3S,4R,5S)-2-cyano-5-(4-(2-ethylbutanamido)pyrrolo[2,1-f][1,2,4]triazin-7-yl)-3,4-dihydroxytetrahydrofuran-2-yl)methyl 2-ethylbutanoate]
half-life at 2 μM ([1]; pooled intestinal S9 fractions): 37 min | half-life at 2 μM ([2]; pooled intestinal S9 fractions): 56 min | EC50 [3]: 24.6 µM

N#C[C@]1(COC(=O)C2CC3(CCC3)C2)O[C@@H](c2ccc3c(N)ncnn23)[C@H](O)[C@@H]1O [Compound 32, ((2R,3S,4R,5S)-5-(4-aminopyrrolo[2,1-f][1,2,4]triazin-7-yl)-2-cyano-3,4-dihydroxytetrahydrofuran-2-yl)methyl spiro[3.3]heptane-2-carboxylate]
half-life at 2 μM ([1]; pooled intestinal S9 fractions): 2 min | half-life at 2 μM ([2]; pooled intestinal S9 fractions): 12 min | EC50 [3]: 6.7 µM

CC(C)CC(=O)OC[C@@]1(C#N)O[C@@H](c2ccc3c(N)ncnn23)[C@H](O)[C@@H]1O [Compound 3, ((2R,3S,4R,5S)-5-(4-aminopyrrolo[2,1-f][1,2,4]triazin-7-yl)-2-cyano-3,4-dihydroxytetrahydrofuran-2-yl)methyl 3-methylbutanoate]
half-life at 2 μM ([1]; pooled intestinal S9 fractions): 12 min | half-life at 2 μM ([2]; pooled intestinal S9 fractions): 42 min | EC50 [3]: 8.55 µM

CC(C)[C@H](N)C(=O)OC[C@@]1(C#N)O[C@@H](c2ccc3c(N)ncnn23)[C@H](O)[C@@H]1O [Compound 12, ((2R,3S,4R,5S)-5-(4-aminopyrrolo[2,1-f][1,2,4]triazin-7-yl)-2-cyano-3,4-dihydroxytetrahydrofuran-2-yl)methyl L-valinate]
half-life at 2 μM ([1]; pooled intestinal S9 fractions): 9 min | half-life at 2 μM ([2]; pooled intestinal S9 fractions): 2 min | EC50 [3]: 10.7 µM

N#C[C@]1(COC(=O)C2CC2)O[C@@H](c2ccc3c(N)ncnn23)[C@H](O)[C@@H]1O [Compound 7, ((2R,3S,4R,5S)-5-(4-aminopyrrolo[2,1-f][1,2,4]triazin-7-yl)-2-cyano-3,4-dihydroxytetrahydrofuran-2-yl)methyl cyclopropanecarboxylate]
half-life at 2 μM ([1]; pooled intestinal S9 fractions): 26 min | half-life at 2 μM ([2]; pooled intestinal S9 fractions): 292 min | EC50 [3]: 10.7 µM

CCC(CC)C(=O)OC[C@@]1(C#N)O[C@@H](c2ccc3c(N)ncnn23)[C@H](O)[C@@H]1O [Compound 9, ((2R,3S,4R,5S)-5-(4-aminopyrrolo[2,1-f][1,2,4]triazin-7-yl)-2-cyano-3,4-dihydroxytetrahydrofuran-2-yl)methyl 2-ethylbutanoate]
half-life at 2 μM ([1]; pooled intestinal S9 fractions): 23 min | half-life at 2 μM ([2]; pooled intestinal S9 fractions): 55 min | EC50 [3]: 9.47 µM

CC1(CC(=O)OC[C@@]2(C#N)O[C@@H](c3ccc4c(N)ncnn34)[C@H](O)[C@@H]2O)CCC1 [Compound 33, ((2R,3S,4R,5S)-5-(4-aminopyrrolo[2,1-f][1,2,4]triazin-7-yl)-2-cyano-3,4-dihydroxytetrahydrofuran-2-yl)methyl 2-(1-methylcyclobutyl)acetate]
half-life at 2 μM ([1]; pooled intestinal S9 fractions): 31 min | half-life at 2 μM ([2]; pooled intestinal S9 fractions): 154 min | EC50 [3]: 50 µM

CC(C)(C)CCC(=O)OC[C@@]1(C#N)O[C@@H](c2ccc3c(N)ncnn23)[C@H](O)[C@@H]1O [Compound 36, ((2R,3S,4R,5S)-5-(4-aminopyrrolo[2,1-f][1,2,4]triazin-7-yl)-2-cyano-3,4-dihydroxytetrahydrofuran-2-yl)methyl 4,4-dimethylpentanoate]
half-life at 2 μM ([1]; pooled intestinal S9 fractions): 3 min | half-life at 2 μM ([2]; pooled intestinal S9 fractions): 11 min | EC50 [3]: 10.8 µM

N#C[C@]1(COC(=O)C2CCCCC2)O[C@@H](c2ccc3c(N)ncnn23)[C@H](O)[C@@H]1O [Compound 19, ((2R,3S,4R,5S)-5-(4-aminopyrrolo[2,1-f][1,2,4]triazin-7-yl)-2-cyano-3,4-dihydroxytetrahydrofuran-2-yl)methyl cyclohexanecarboxylate]
half-life at 2 μM ([1]; pooled intestinal S9 fractions): 4 min | half-life at 2 μM ([2]; pooled intestinal S9 fractions): 13 min | EC50 [3]: 10.9 µM

N#C[C@]1(COC(=O)C2CCCC2)O[C@@H](c2ccc3c(N)ncnn23)[C@H](O)[C@@H]1O [Compound 18, ((2R,3S,4R,5S)-5-(4-aminopyrrolo[2,1-f][1,2,4]triazin-7-yl)-2-cyano-3,4-dihydroxytetrahydrofuran-2-yl)methyl cyclopentanecarboxylate]
half-life at 2 μM ([1]; pooled intestinal S9 fractions): 3 min | half-life at 2 μM ([2]; pooled intestinal S9 fractions): 8 min | EC50 [3]: 8.71 µM
